Target: T1, H. sapiens SLC2A9 variant 2 (GLUT9B) (Homo sapiens, UniProt Q9NRM0)
T1 sequence (Q9NRM0 1-511 isoform Q9NRM0-2): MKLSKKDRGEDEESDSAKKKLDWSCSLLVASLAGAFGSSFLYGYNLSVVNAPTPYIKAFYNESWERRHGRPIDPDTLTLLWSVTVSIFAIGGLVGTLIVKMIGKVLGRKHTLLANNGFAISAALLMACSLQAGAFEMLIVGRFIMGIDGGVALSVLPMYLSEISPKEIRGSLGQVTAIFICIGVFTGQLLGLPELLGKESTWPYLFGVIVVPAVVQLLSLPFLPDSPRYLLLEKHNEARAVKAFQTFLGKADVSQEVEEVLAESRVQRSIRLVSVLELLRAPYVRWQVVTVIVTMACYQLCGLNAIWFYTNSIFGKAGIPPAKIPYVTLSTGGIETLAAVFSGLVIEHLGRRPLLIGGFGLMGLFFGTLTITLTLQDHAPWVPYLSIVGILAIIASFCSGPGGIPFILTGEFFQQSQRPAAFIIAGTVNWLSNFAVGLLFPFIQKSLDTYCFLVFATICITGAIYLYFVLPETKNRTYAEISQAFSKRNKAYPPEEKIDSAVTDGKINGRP
Assay: GLUT9 functional assay: uric acid uptake in HEK293T cells, allantoin formation by MS/MS as proxy of GLUT9B inhibition
Type: cell-based
Details: 15 minute assay; HEK293T cells stably expressing GLUT9B and transiently A. oryzae uricase; uric acid 0.3 mM, 37° C.; read-out: 15 min IC50
Experimental: Uric acid stocks (9 mM, Millipore-Sigma, U0881) were generated in 125 mM choline chloride (Millipore-Sigma, C7017) and the concentration was determined at 293 nm using a molar extinction coefficient of 9600 M- ^1 cm- ^1) after collecting the absorbance spectra from 220-350 nm. Allantoin stocks (12 mM Toronto Research Chemicals, A540500) were generated in LCMS grade water (Thermo Scientific, 51140). The concentration of allantoin was determined by qNMR (Michigan State University). HEK293T cells were purchased from ATCC (HEK 293T/17 SF). Hanks buffered saline salts (HBSS) was purchased from Millipore-Sigma (H6648-1L).
SLC2A9 variant 2 was assayed in sodium gluconate buffer was composed of 125 mM sodium gluconate (TCI Chemicals, G0041-500G), 4.8 mM potassium gluconate (TCI Chemicals, G0040-500G), 1.2 mM calcium gluconate (TCI Chemicals, G0037-500G), 1.2 mM potassium phosphate (pH 7.4, Millipore-Sigma, 17835), 1.2 mM MgSO4, Millipore-Sigma, M2773-500G), 25 mM HEPES pH 7.3, (Millipore-Sigma, 54457). The final pH of the buffer was 7.4. Urate 1 was assayed in the same buffer save the pH was made to be 5.5 using 25 mM MES (pH 5.5) buffer vs 25 mM HEPES (pH 7.3) buffer.
Human untagged clone for (untagged)-human solute carrier family 2 member 9 (SLC2A9), transcript variant (SLC2A9/NM_001001290, FIG. 1 and FIG. 2; SEQ ID NOS: 3 and 4) was purchased from Origene (Cat #SC319239). SLC2A9 variant 2 (GLUT9B) gene was amplified by PCR using the following primer to allow for the introduction of EcoR1 and Not1 sites using the primers below.
HEK293T clonal stable cell lines containing the SLC2A9 variant 2 construct in the bicistronic pIRESpuro vector were generated using Viafect™ (Promega E4981) as per the manufactures instructions and puromycin selection (5 μg×mL^−1).
Uric acid uptake was measured in HEK293T cells stably expressing H. sapiens SLC2A9 variant 2 (GLUT9B) and transiently expressing A. oryzae uricase. Thus, decreased allantoin formation was used as a proxy of GLUT9B inhibition. Briefly, clonal cells were plated (53,000 cells/cm^2) in DMEM with 10% FBS. Twenty-four hours later, A. oryzae uricase was transfected, and assay conducted 3 days later across a 12-point curve in buffer (in mM: 125 sodium gluconate, 4.8 potassium gluconate, 1.2 calcium gluconate, 1.2 potassium phosphate, 1.2 magnesium sulfate4, 25 HEPES; pH 7.4) with uric acid at the GLUT9B Km (0.3 mM) for 15 min or for 60 min, at 37° C. Following wash (Hanks, 37° C.), plates were sealed, incubated (5 min, RT) and cells freeze-thawed prior to lysing in water and shaking (30 min RT). Lysates were filtered through PVDF and subjected to MSMS using a 10 mM ammonium acetate-based mobile phase on a porous graphitic carbon column. Allantoin was detected in positive ion mode. Desired analyte concentrations were quantitated by integrating the area under the curve followed by a log-logistic regression model and data compared to a standard curve prepared in a matching HEK293T biological matrix.
Mass spectrometry measurement of allantoin was completed using an Agilent RapidFire 300 coupled to a Sciex API 4000 mass spectrometer. The stationary phase was an Agilent cartridge D (hypercarb). Mobile phase A was 10 mM ammonium acetate. Mobile phase B was 5 mM ammonium acetate, 25% acetonitrile, 25% acetone. Allantoin was detected in positive ion mode with the following compound ID settings: Q1 159, Q3 115.8, DP 57, CE 12.5 Dwell 100 ms. The source settings were CAD 10, CUR 20, GS1 50, GS250 IS/NC: 5000, TEM 650, EP 10, CXP 10 where Q1 and Q3 resolution were set to low.
Data was quantitated using Area under the curve integration was performed with the RapidFire™ Integrator (Agilent Technologies) for the desired analytes. Quantitation was completed using in a using a log-logistic regression model using allantoin in matching HEK293T biological matrix.

Row | Compound | IC50
1 | COCc1cnc(-c2cc(F)c3c(ccn3C)c2)c(N2CCC(C(=O)O)CC2)n1 [Compound 51, 1-(3-(7-fluoro-1-methyl-1H-indol-5-yl)-6-(methoxymethyl)pyrazin-2-yl)piperidine-4-carboxylic acid] | > 2000 nM
2 | COCc1cnc(-c2cc(F)c3ccn(C)c3c2)c(N2CCC(C(=O)O)CC2)n1 [Compound 52, 1-(3-(4-fluoro-1-methyl-1H-indol-6-yl)-6-(methoxymethyl)pyrazin-2-yl)piperidine-4-carboxylic acid] | < 500 nM
3 | COCC(COC)Cc1cnc(-c2cc(F)c3occc3c2)c(N2CCC(C(=O)O)CC2)n1 [Compound 53, 1-(3-(7-Fluorobenzofuran-5-yl)-6-(3-Methoxy-2-(methoxymethyl)propyl)pyrazin-2-yl)piperidine-4-carboxylic acid] | < 500 nM
4 | COc1ccc(-c2nc(Cl)c(COCC(F)(F)F)nc2N2CCC(C(=O)O)CC2)cc1 [Compound 54, 1-(5-chloro-3-(4-methoxyphenyl)-6-((2,2,2-trifluoroethoxy)methyl)pyrazin-2-yl)piperidine-4-carboxylic acid] | > 2000 nM
5 | COCc1cnc(-c2cc(F)c3c(c2)CCO3)c(N2CCC(C(=O)O)CC2)n1 [Compound 55, 1-(3-(7-fluoro-2,3-dihydrobenzofuran-5-yl)-6-(methoxymethyl)pyrazin-2-yl)piperidine-4-carboxylic acid] | 500 to 2000 nM
6 | COCc1nc(N2CCC(C(=O)O)CC2)c(-c2cc(F)c3c(ccn3C)c2)nc1Cl [Compound 56, 1-(5-chloro-3-(7-fluoro-1-methyl-1H-indol-5-yl)-6-(methoxymethyl)pyrazin-2-yl)piperidine-4-carboxylic acid] | > 2000 nM
7 | O=C(O)C1CCN(c2nc(COCC(F)(F)F)cnc2-c2ccc3oc(F)cc3c2)CC1 [Compound 57, 1-(3-(2-fluorobenzofuran-5-yl)-6-((2,2,2-trifluoroethoxy)methyl)pyrazin-2-yl)piperidine-4-carboxylic acid] | > 2000 nM
8 | O=C(O)C1CCN(c2nc(COCC(F)(F)F)cnc2-c2ccc(Cl)c(OC(F)(F)F)c2)CC1 [Compound 58, 1-(3-(4-chloro-3-(trifluoromethoxy)phenyl)-6-((2,2,2-trifluoroethoxy)methyl)pyrazin-2-yl)piperidine-4-carboxylic acid] | > 2000 nM
9 | O=C(O)c1c[nH]c2cc(-c3cc(COC(F)(F)F)cnc3-c3cc(F)c4occc4c3)ccc12 [Compound 59, 6-(2-(7-fluorobenzofuran-5-yl)-5-((trifluoromethoxy)methyl)pyridin-3-yl)-1H-indole-3-carboxylic acid] | < 500 nM
10 | O=C(O)C1CCN(c2nc(CCC(F)(F)F)cnc2-c2ccc3oc(F)cc3c2)CC1 [Compound 60, 1-(3-(2-fluorobenzofuran-5-yl)-6-(3,3,3-trifluoropropyl)pyrazin-2-yl)piperidine-4-carboxylic acid] | 500 to 2000 nM
11 | O=C(O)C1CCN(c2nc(CCC(F)(F)F)cnc2-c2cc(F)c3occc3c2)CC1 [Compound 61, 1-(3-(7-Fluorobenzofuran-5-yl)-6-(3,3,3-Trifluoropropyl)Pyrazin-2-yl)piperidine-4-carboxylic acid] | < 500 nM
12 | COc1cc(-c2ncc(CCC(F)(F)F)nc2N2CCC(C(=O)O)CC2)ccc1Cl [Compound 62, 1-(3-(4-chloro-3-methoxyphenyl)-6-(3,3,3-trifluoropropyl)pyrazin-2-yl)piperidine-4-carboxylic acid] | > 2000 nM
13 | O=C(O)c1c[nH]c2cc(-c3cc(CCC(F)(F)F)cnc3-c3cc(F)c4occc4c3)ccc12 [Compound 63, 6-(2-(7-fluorobenzofuran-5-yl)-5-(3,3,3-trifluoropropyl)pyridin-3-yl)-1H-indole-3-carboxylic acid] | 500 to 2000 nM
14 | O=C(O)C1CCN(c2nc(COCC(F)(F)F)cnc2-c2cnc3occc3c2)CC1 [Compound 64, 1-(3-(furo[2,3-b]pyridin-5-yl)-6-((2,2,2-trifluoroethoxy)methyl)pyrazin-2-yl)piperidine-4-carboxylic acid] | > 2000 nM
15 | Fc1cc(-c2ncc(COCC(F)(F)F)nc2N2CCC(c3nn[nH]n3)CC2)cc2ccoc12 [Compound 65, 3-(4-(2H-tetrazol-5-yl)piperidin-1-yl)-2-(7-fluorobenzofuran-5-yl)-5-((2,2,2-trifluoroethoxy)methyl)pyrazine] | < 500 nM
16 | CS(=O)(=O)NC(=O)C1CCN(c2nc(COCC(F)(F)F)cnc2-c2cc(F)c3occc3c2)CC1 [Compound 66, 1-(3-(7-fluorobenzofuran-5-yl)-6-((2,2,2-trifluoroethoxy)methyl)pyrazin-2-yl)-N-(methylsulfonyl)piperidine-4-carboxamide] | 500 to 2000 nM
17 | COCCOc1ccc(-c2ncc(COCC(F)(F)F)nc2N2CCC(C(=O)NS(C)(=O)=O)CC2)cc1 [Compound 67, 1-(3-(4-(2-methoxyethoxy)phenyl)-6-((2,2,2-trifluoroethoxy)methyl)pyrazin-2-yl)-N-(methylsulfonyl)piperidine-4-carboxamide] | > 2000 nM
18 | COCCOc1ccc(-c2ncc(COCC(F)(F)F)nc2N2CCC(c3nn[nH]n3)CC2)cc1 [Compound 68, 3-(4-(2H-tetrazol-5-yl)piperidin-1-yl)-2-(4-(2-methoxyethoxy)phenyl)-5-((2,2,2-trifluoroethoxy)methyl)pyrazine] | > 2000 nM
19 | Fc1cc(-c2ncc(CCC(F)(F)F)nc2N2CCC(c3nn[nH]n3)CC2)cc2ccoc12 [Compound 69, 3-(4-(2H-tetrazol-5-yl)piperidin-1-yl)-2-(7-fluorobenzofuran-5-yl)-5-(3,3,3-trifluoropropyl)pyrazine] | < 500 nM
20 | COCCOc1ccc(-c2ncc(CCC(F)(F)F)nc2N2CCC(C(=O)NS(C)(=O)=O)CC2)cc1 [Compound 70, 1-(3-(4-(2-methoxyethoxy)phenyl)-6-(3,3,3-trifluoropropyl)pyrazin-2-yl)-N-(methylsulfonyl)piperidine-4-carboxamide] | 500 to 2000 nM
21 | COCCOc1ccc(-c2ncc(CCC(F)(F)F)nc2N2CCC(c3nn[nH]n3)CC2)cc1 [Compound 71, 3-(4-(2H-tetrazol-5-yl)piperidin-1-yl)-2-(4-(2-methoxyethoxy)phenyl)-5-(3,3,3-trifluoropropyl)pyrazine] | < 500 nM
22 | O=C(O)C1CCN(c2nc(COCC(F)(F)F)cnc2-c2cnc3c(c2)CCO3)CC1 [Compound 72, 1-(3-(2,3-dihydrofuro[2,3-b]pyridin-5-yl)-6-((2,2,2-trifluoroethoxy)methyl)pyrazin-2-yl)piperidine-4-carboxylic acid] | > 2000 nM

— patent publication US20250179032A1, “HETEROCYCLIC INHIBITORS OF GLUT9 FOR TREATMENT OF DISEASE” (HORIZON THERAPEUTICS IRELAND DAC, priority 2022, published 2025)
